# In ChEMBL document CHEMBL1124940, “N-[(arylmethoxy)phenyl] carboxylic acids, hydroxamic acids, tetrazoles, and sulfonyl carboxamides. Potent orally active leukotriene D4 antagonists of novel structure” (J Med Chem, 1990):
# How the values were obtained:
# [1] = test system: Cavia porcellus; assay: Inhibition of LTD4-induced broncho constriction in Guinea pig after intragastrical administration of a dose of 25 mg/kg; assay type: functional; conditions: po, route intragastric
# [2] = test system: Cavia porcellus; assay: Inhibition of LTD4-induced broncho constriction in Guinea pig after intragastrical administration of a dose of 3 mg/kg; assay type: functional; conditions: po, route intragastric
# [3] = test system: Cavia porcellus; assay: Tested for the inhibition of LTD4-induced broncho constriction in Guinea pig, injected intraduodenally at a dose of 25 mg/kg; assay type: functional; conditions: route intraduodenal
# [4] = test system: Cavia porcellus; assay: Inhibition of LTD4-induced broncho constriction in Guinea pig after intragastrical administration of a dose of 1 mg/kg; assay type: functional; conditions: po, route intragastric
# [5] = test system: Cavia porcellus; assay: Inhibition of LTD4-induced broncho constriction in Guinea pig after intragastrical administration of a dose of 0.3 mg/kg; assay type: functional; conditions: po, route intragastric
# [6] = test system: Cavia porcellus; assay: Inhibition of LTD4-induced broncho constriction in Guinea pig after intraduodenal administration of a dose of 25 mg/kg; assay type: functional
# [7] = test system: Cavia porcellus; assay: Tested for the inhibition of LTD4-induced broncho constriction in Guinea pig, injected intraduodenally at a dose of 5 mg/kg; assay type: functional; conditions: route intraduodenal
# [8] = test system: Rattus norvegicus; assay: Antiinflammatory effect was studied in a rat carrageenan paw edema (CE) assay at 50 mg/kg; assay type: functional
# [9] = test system: Cavia porcellus; assay: In vitro for inhibition of ovalbumin-induced bronchoconstriction in isolated guinea pig trachea by injecting intraduodenally; assay type: functional; conditions: intraduodenal
# [10] = test system: Cavia porcellus; assay: In vitro inhibition of LTD4-induced bronchoconstriction after intragastrical administration 120 min before agonist into isolated guinea pig trachea; assay type: functional; conditions: po
# [11] = biological target: T1, Cyclooxygenase (Rattus norvegicus, UniProt P35355+Q63921); assay: Concentration for 50% inhibition of A-23187-stimulated radiolabeled 5-HETE and TXB2 synthesis by Prostaglandin G/H synthase; assay type: protein assay
# T1 sequence (P35355 whole entry): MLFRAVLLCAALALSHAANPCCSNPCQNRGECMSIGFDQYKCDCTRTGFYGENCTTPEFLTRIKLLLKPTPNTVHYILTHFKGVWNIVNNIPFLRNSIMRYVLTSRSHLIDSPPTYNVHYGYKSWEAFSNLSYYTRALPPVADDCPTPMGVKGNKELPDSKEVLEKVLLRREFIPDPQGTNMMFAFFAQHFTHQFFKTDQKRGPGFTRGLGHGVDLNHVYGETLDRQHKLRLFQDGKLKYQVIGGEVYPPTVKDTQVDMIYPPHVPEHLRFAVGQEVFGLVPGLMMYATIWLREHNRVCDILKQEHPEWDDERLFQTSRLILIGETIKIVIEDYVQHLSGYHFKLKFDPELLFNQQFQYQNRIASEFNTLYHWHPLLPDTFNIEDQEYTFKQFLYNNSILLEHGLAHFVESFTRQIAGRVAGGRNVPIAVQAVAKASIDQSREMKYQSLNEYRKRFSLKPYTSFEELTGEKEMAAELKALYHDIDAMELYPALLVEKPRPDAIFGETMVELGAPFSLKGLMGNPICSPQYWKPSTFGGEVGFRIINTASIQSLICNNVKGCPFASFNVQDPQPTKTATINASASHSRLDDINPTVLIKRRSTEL
# T1 sequence (Q63921 whole entry): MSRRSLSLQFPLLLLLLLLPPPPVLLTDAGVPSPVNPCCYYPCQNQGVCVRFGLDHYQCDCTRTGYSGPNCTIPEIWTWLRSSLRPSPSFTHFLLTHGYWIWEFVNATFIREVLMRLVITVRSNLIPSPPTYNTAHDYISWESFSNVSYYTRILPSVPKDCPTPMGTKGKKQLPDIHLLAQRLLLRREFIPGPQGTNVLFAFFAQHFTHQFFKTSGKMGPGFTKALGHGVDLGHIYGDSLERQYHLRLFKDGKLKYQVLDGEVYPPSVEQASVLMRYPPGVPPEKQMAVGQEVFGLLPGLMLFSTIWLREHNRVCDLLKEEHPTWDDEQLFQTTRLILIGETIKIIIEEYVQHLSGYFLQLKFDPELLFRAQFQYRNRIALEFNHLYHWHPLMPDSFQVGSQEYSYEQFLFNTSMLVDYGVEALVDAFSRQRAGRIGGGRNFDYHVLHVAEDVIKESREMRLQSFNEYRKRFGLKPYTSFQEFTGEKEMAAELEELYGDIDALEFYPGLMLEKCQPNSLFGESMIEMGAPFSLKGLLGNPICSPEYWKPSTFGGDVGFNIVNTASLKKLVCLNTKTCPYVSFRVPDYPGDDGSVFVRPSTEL
# [12] = test system: Cavia porcellus; assay: In vitro inhibition of ovalbumin-induced bronchoconstriction after intragastrical administration 120 min before agonist into isolated guinea pig trachea; assay type: functional; conditions: po
# [13] = test system: Cavia porcellus; assay: Dissociation constant was determined In vitro in isolated guinea pig trachea after intraduodenal administration; assay type: ADME, organism-based; conditions: in vivo, other
# [14] = test system: Cavia porcellus; assay: Examined in vitro for LTD4-induced bronchoconstriction in isolated guinea pig trachea by injecting intraduodenally; assay type: functional; conditions: intraduodenal
# [15] = biological target: T2, Polyunsaturated fatty acid 5-lipoxygenase (Rattus norvegicus, UniProt P12527); assay: Concentration for 50% inhibition of A-23187-stimulated radiolabeled 5-HETE and TXB2 synthesis by PMN 5-lipoxygenase; assay type: functional
# T2 sequence (P12527 whole entry): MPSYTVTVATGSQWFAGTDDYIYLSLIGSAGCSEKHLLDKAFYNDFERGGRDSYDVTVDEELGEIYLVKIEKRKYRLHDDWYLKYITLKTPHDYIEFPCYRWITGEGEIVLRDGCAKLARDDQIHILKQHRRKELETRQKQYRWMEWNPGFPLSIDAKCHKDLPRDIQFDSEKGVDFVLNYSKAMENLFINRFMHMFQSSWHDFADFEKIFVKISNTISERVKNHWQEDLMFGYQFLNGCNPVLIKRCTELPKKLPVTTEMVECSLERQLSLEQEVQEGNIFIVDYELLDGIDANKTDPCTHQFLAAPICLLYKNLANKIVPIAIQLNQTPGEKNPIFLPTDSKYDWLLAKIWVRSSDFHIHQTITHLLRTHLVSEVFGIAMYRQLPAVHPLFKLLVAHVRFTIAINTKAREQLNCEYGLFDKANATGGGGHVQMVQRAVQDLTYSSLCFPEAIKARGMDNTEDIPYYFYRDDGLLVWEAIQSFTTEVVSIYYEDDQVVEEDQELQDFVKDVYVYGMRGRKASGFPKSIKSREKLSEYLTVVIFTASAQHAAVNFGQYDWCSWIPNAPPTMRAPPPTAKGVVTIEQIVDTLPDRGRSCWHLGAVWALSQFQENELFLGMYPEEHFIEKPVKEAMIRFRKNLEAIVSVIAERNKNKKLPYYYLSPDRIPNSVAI
structure (smiles),measurement,setting,value
CONC(=O)CCc1cccc(OCc2ccc3ccccc3n2)c1,inhibition in vivo at 25 mg/kg,[1],86%
same,inhibition in vivo at 3 mg/kg,[2],5%
O=C(NO)c1cccc(OCc2ccc3ccccc3n2)c1,inhibition in vivo at 25 mg/kg,[3],< 33%
c1cc(Cc2nnn[nH]2)cc(OCc2ncc3ccccc3n2)c1,inhibition in vivo at 25 mg/kg,[3],< 77%
c1ccc(-c2nn[nH]n2)c(OCc2ccc3ccccc3n2)c1,inhibition in vivo at 25 mg/kg,[3],< 31%
Cc1ccc(S(=O)(=O)NC(=O)Cc2cccc(OCc3ccc4ccccc4n3)c2)cc1,inhibition in vivo at 25 mg/kg,[1],< 16%
same,inhibition in vivo at 25 mg/kg,[3],< 75%
O=C(NS(=O)(=O)c1ccccc1)c1cccc(OCc2ccc3ccccc3n2)c1,inhibition in vivo at 1 mg/kg,[4],< 82%
same,inhibition in vivo at 0.3 mg/kg,[5],< 12%
CONC(=O)Cc1cccc(OCc2nc3ccccc3n2C)c1,inhibition in vivo at 25 mg/kg,[1],< 58%
O=C(O)CCc1cccc(OCc2ccc3ccccc3n2)c1,inhibition in vivo at 25 mg/kg,[1],< 75%
CON(C)C(=O)Cc1cccc(OCc2ccc3ccccc3n2)c1,inhibition in vivo at 25 mg/kg,[1],93%
O=C(NOCc1ccccc1)c1cccc(OCc2ccc3ccccc3n2)c1,inhibition in vivo at 25 mg/kg,[6],< 71%
same,inhibition in vivo at 25 mg/kg,[1],< -14%
c1ccc2nc(COc3ccc(-c4nn[nH]n4)cc3)ccc2c1,inhibition in vivo at 5 mg/kg,[7],< 28%
CC(C)Cc1ccc(C(C)C(=O)O)cc1 (stereo not drawn) [IBUPROFEN],inhibition in vivo at 50 mg/kg,[8],63%
O=S(=O)(Nc1cccc(OCc2ccc3ccccc3n2)c1)C(F)(F)F [RITOLUKAST],ED50,[9],3 mg/kg
same,ED50,[10],0.1 mg/kg
same,IC50,[11],9100 nM
same,ED50,[12],0.6 mg/kg
same,pKb,[13],7.7
same,ED50,[14],0.3 mg/kg
same,IC50,[15],2000 nM
